Like-named read-outs stand apart in the source and are kept apart here.
Key:
iron overloaded subjects = assay: Safety: single-dose Phase 1 study in iron-overloaded subjects; format: in vivo
Procedure: The objectives of this study were to assess the safety, tolerability, and pharmacokinetics of ascending single doses of Compound 1. Additionally, dose proportionality and pharmacodynamics of Compound 1 were assessed. Four doses of Compound 1 (6, 10, 16, and 32 mg/kg), in capsule form, were evaluated in this study. Each dose level was tested in a single subject, with appropriate evaluation of safety done prior to escalating the dose. Following screening, the first subject was dosed and then confined to the clinical research unit for 24 hours to conduct safety and pharmacokinetic assessments. The subject was released from the clinic on Day 2 and returned daily for follow-up visits for 5 days post-dosing. This process was followed for each dose level.
Four iron overloaded subjects were enrolled and completed the study. Each subject received a single oral dose of Compound 1. Doses were 6, 10, 16 and 32 mg/kg. […] Three TEAEs were reported for a single subject who received 32 mg/kg of Compound 1. All 3 TEAEs occurred at the site of venipuncture used for blood sampling: bruising at cannula site on the left arm and bruising at 2 venipuncture sites on the left arm and then the right arm.

[1] = Example 9: single-dose study in healthy human subjects 30-75 mg/kg and 20 mg/kg x 2 (PK); format: in vivo; conditions: for Vd/F / AUC(0-inf) / AUC(0-t) / Cmax / half-life / Tmax / CL renal: human; for Vd/F / AUC(0-inf) / AUC(0-t) / Cmax / half-life / Tmax: plasma; for Vd/F: read-out: VZ/F; for CL renal: urine and plasma
Procedure: Example 9 was a single-dose escalating study in healthy volunteers. The objectives of the study were to assess the safety, tolerability, pharmacokinetic, and pharmacodynamics of single ascending doses of Compound 1. The doses tested were 30, 40, 50, 60, and 75 mg/kg once daily and a regimen of 20 mg/kg twice a day, which extended the range of doses evaluated. This Example confirms the earlier results obtained with higher dosage, as described in Example 7.
This was a single-center, double-blind, placebo-controlled study of ascending single oral doses of Compound 1. Six cohorts of 8 subjects (30 and 50 mg/kg single doses) or 5 subjects (40, 60, and 75 mg/kg single doses and 20 mg/kg×2 doses at 12 hour intervals) were dosed sequentially with Compound 1. Within each cohort, 7 or 4 subjects received Compound 1 and 1 subject received placebo. Subjects in the 20 mg/kg×2 doses cohort received a dose the evening prior to the study day (Day −1), approximately 12 hours prior to dosing on Day 1. The dose administered on Day −1 followed a 2-hour fast and that on Day 1 a 10-hour fast.
A total of 36 subjects were enrolled and all subjects completed the study. The 30 subjects that received active drug comprised the pharmacokinetic (PK) analysis population.
[…] subjects receiving a single dose, blood samples for the measurement of the total (free and iron bound complex) plasma concentrations of Compound 1 were collected before and 0.25, 0.5, 0.75, 1, 1.25, 1.5, 2, 2.5, 4, 8, 12, 24, 48, 72, and 96 hours after dosing. Subjects receiving two doses of 20 mg/kg had blood collected prior and 0.5, 1, 1.5, 2, and 2.5 hours after the first dose. After the second dose in the morning of Day 1, the sampling schedule was identical to that used for subjects receiving a single dose.
In all cohorts, urine was collected in pooled intervals of 0-4, 4-8, 8-12 and 12-24 hours after the dose on Day 1 for the analysis of Compound 1 concentrations.

[2] = 20 mg/kg × 2 at 12-hour interval
[3] = oral, 20 mg/kg × 2, for the total dose of 40 mg/kg

COCCOCCOCCOc1cccc(C2=N[C@@](C)(C(=O)O)CS2)c1O [Compound 1, (S)-4,5-Dihydro-2-[2-hydroxy-3-(3,6,9-trioxadecyloxy)phenyl]-4-methyl-4-thiazolecarboxylate magnesium hydroxide]
tolerability (iron overloaded subjects; single oral dose 6, 10, 16, 32 mg/kg): well tolerated
clinical laboratory assessments, vital sign measurements, ECG parameters (iron overloaded subjects; single oral dose 6-32 mg/kg): no clinically significant changes
deaths, SAEs, withdrawals due to AEs (iron overloaded subjects; single oral dose 6-32 mg/kg): no deaths, no serious adverse events (SAEs), and no withdrawals due to AEs
TEAEs reported (iron overloaded subjects; single subject who received 32 mg/kg, all at site of venipuncture): Three
CL/F ([1]; 20 mg/kg × 2, calculated with total dose of 40 mg/kg): 235 ± 96.2 mL/min
Ue(0-24) [1, 2]: 805 ± 208 mg
λZ [1, 2]: 0.0744 ± 0.0158 h⁻¹
dose recovered in the urine over 24-hour post-dose period ([1]; 30 and 40 mg/kg): approximately 55%
Vd/F ([1]; oral, 20 mg/kg × 2, calculated with total dose of 40 mg/kg): 208 ± 136 L
AUC(0-inf) [1, 3]: 231 µg·h/mL
AUC(0-t) [1, 3]: 221 µg·h/mL
Cmax ([1]; oral, 20 mg/kg × 2 at 12-hour interval, for the second dose): 52.9 µg/mL
half-life ([1]; oral, 20 mg/kg × 2 at 12-hour interval, read-out: t1/2 (converted)): 9.64 ± 2.28 h
Tmax ([1]; oral, 20 mg/kg × 2 at 12-hour interval, second dose, median, read-out: tmax): 0.75 h
Tmax ([1]; oral, across cohorts, read-out: median values for Tmax, range): 1 to 1.5 h
half-life ([1]; oral, across cohorts, read-out: t1/2, range): 8.36 to 18.6 h
AUC(0-inf) ([1]; single oral dose 30 mg/kg): 161 µg·h/mL
AUC(0-t) ([1]; single oral dose 30 mg/kg): 155 µg·h/mL
Cmax ([1]; single oral dose 30 mg/kg): 68.2 µg/mL
Tmax ([1]; single oral dose 30 mg/kg, median, read-out: tmax): 1 h
Vd/F ([1]; single oral dose 30 mg/kg): 248 ± 58.8 L
half-life ([1]; single oral dose 30 mg/kg, read-out: t1/2 (converted)): 12.1 ± 3.05 h
AUC(0-inf) ([1]; single oral dose 40 mg/kg): 195 µg·h/mL
AUC(0-t) ([1]; single oral dose 40 mg/kg): 205 µg·h/mL
Cmax ([1]; single oral dose 40 mg/kg): 87.9 µg/mL
Tmax ([1]; single oral dose 40 mg/kg, median, read-out: tmax): 1.38 h
Vd/F ([1]; single oral dose 40 mg/kg): 542 ± 657 L
half-life ([1]; single oral dose 40 mg/kg, read-out: t1/2 (converted)): 18.6 ± 19.2 h
AUC(0-inf) ([1]; single oral dose 50 mg/kg): 236 µg·h/mL
AUC(0-t) ([1]; single oral dose 50 mg/kg): 254 µg·h/mL
Cmax ([1]; single oral dose 50 mg/kg): 91.7 µg/mL
Tmax ([1]; single oral dose 50 mg/kg, median, read-out: tmax): 1.5 h
Vd/F ([1]; single oral dose 50 mg/kg): 338 ± 272 L
half-life ([1]; single oral dose 50 mg/kg, read-out: t1/2 (converted)): 12.8 ± 7.66 h
AUC(0-inf) ([1]; single oral dose 60 mg/kg): 205 µg·h/mL
AUC(0-t) ([1]; single oral dose 60 mg/kg): 204 µg·h/mL
Cmax ([1]; single oral dose 60 mg/kg): 82.3 µg/mL
Tmax ([1]; single oral dose 60 mg/kg, median, read-out: tmax): 1.38 h
Vd/F ([1]; single oral dose 60 mg/kg): 454 ± 363 L
half-life ([1]; single oral dose 60 mg/kg, read-out: t1/2 (converted)): 11 ± 5.99 h
AUC(0-inf) ([1]; single oral dose 75 mg/kg): 247 µg·h/mL
AUC(0-t) ([1]; single oral dose 75 mg/kg): 244 µg·h/mL
Cmax ([1]; single oral dose 75 mg/kg): 84.6 µg/mL
Tmax ([1]; single oral dose 75 mg/kg, median, read-out: tmax): 1.38 h
Vd/F ([1]; single oral dose 75 mg/kg): 342 ± 83.6 L
half-life ([1]; single oral dose 75 mg/kg, read-out: t1/2 (converted)): 8.36 ± 3.84 h
CL renal ([1]; oral, 20 mg/kg × 2 at 12-hour interval, read-out: CLr): 131 ± 18.7 mL/min
CL renal ([1]; oral, not dependent upon dose, read-out: Renal clearance, average): ~140 mL/min
CL renal ([1]; single oral dose 30 mg/kg, read-out: CLr): 139 ± 13.2 mL/min
CL renal ([1]; single oral dose 40 mg/kg, read-out: CLr): 152 ± 18 mL/min
CL renal ([1]; single oral dose 50 mg/kg, read-out: CLr): 103 ± 16.2 mL/min
CL renal ([1]; single oral dose 60 mg/kg, read-out: CLr): 147 ± 28.2 mL/min
CL renal ([1]; single oral dose 75 mg/kg, read-out: CLr): 165 ± 42.7 mL/min
CL/F ([1]; single oral dose 30 mg/kg): 239 ± 17.2 mL/min
Fe(0-24) ([1]; single oral dose 30 mg/kg): 54.8 ± 8.99 % Dose
Ue(0-24) ([1]; single oral dose 30 mg/kg): 1,260 ± 255.3 mg
λZ ([1]; single oral dose 30 mg/kg): 0.0615 ± 0.0200 h⁻¹
CL/F ([1]; single oral dose 40 mg/kg): 290 ± 73.8 mL/min
Fe(0-24) ([1]; single oral dose 40 mg/kg): 57.1 ± 8.60 % Dose
Ue(0-24) ([1]; single oral dose 40 mg/kg): 1,820 ± 397 mg
λZ ([1]; single oral dose 40 mg/kg): 0.0677 ± 0.0439 h⁻¹
CL/F ([1]; single oral dose 50 mg/kg): 286 ± 56.1 mL/min
Fe(0-24) ([1]; single oral dose 50 mg/kg): 40.2 ± 8.69 % Dose
Ue(0-24) ([1]; single oral dose 50 mg/kg): 1,500 ± 434 mg
λZ ([1]; single oral dose 50 mg/kg): 0.0664 ± 0.0292 h⁻¹
CL/F ([1]; single oral dose 60 mg/kg): 435 ± 117.0 mL/min
Fe(0-24) ([1]; single oral dose 60 mg/kg): 33.7 ± 8.37 % Dose
Ue(0-24) ([1]; single oral dose 60 mg/kg): 1,713 ± 480 mg
λZ ([1]; single oral dose 60 mg/kg): 0.0786 ± 0.0393 h⁻¹
CL/F ([1]; single oral dose 75 mg/kg): 540 ± 237 mL/min
Fe(0-24) ([1]; single oral dose 75 mg/kg): 35.0 ± 15.1 % Dose
Ue(0-24) ([1]; single oral dose 75 mg/kg): 2,199 ± 1,189 mg
λZ ([1]; single oral dose 75 mg/kg): 0.0943 ± 0.0383 h⁻¹
dose recovered in the urine over 24-hour post-dose period ([1]; the 3 higher doses (50, 60, 75 mg/kg)): approximately 38%
